The results in this text go back to patent US9540384B2, “Pyrrolidino heterocycles” (Hoffmann-La Roche Inc., priority 2012, dated 2017).

Where a name gives a salt, the structure may show the parent alone.

Sequence of human PDE10A full length (Q9Y233 other isoform, or with tags, fused parts or gaps): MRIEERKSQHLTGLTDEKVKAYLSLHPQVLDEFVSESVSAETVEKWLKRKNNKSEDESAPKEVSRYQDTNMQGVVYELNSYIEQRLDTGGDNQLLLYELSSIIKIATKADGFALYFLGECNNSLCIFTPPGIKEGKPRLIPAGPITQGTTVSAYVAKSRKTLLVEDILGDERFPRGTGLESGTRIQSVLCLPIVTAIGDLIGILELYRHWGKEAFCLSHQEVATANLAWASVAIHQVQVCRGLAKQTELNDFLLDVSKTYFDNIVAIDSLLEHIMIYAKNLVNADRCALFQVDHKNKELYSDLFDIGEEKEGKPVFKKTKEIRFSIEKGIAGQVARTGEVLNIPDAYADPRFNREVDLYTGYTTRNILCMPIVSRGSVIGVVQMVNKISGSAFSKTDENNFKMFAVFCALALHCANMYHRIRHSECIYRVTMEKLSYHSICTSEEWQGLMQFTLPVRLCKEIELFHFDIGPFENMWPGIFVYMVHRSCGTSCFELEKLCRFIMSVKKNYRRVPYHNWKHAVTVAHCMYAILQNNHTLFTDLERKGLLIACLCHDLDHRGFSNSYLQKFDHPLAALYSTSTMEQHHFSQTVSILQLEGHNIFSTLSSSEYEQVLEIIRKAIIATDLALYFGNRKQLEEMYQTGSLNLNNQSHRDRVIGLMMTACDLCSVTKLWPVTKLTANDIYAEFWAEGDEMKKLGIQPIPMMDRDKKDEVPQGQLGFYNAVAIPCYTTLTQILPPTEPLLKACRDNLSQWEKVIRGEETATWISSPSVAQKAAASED

The test addresses human PDE10A full length (Homo sapiens (Human), UniProt Q9Y233). The test can be described thus: human PDE10A full length Scintillation Proximity Assay (SPA). Format: biochemical. The note with it: PDE10A enzyme, 50 nM cGMP + 50 nM [3H]-cGMP, 20 minutes at room temperature. As for the experimental part:
The following test was carried out in order to determine the activity of the compounds of the present invention. PDE10 activity of the compounds of the present invention was determined using a Scintillation Proximity Assay (SPA)-based method similar to the one previously described (Fawcett, L. et al., Proc Natl Acad Sci USA (2000) 97(7):3702-3707).
The human PDE10A full length assay was performed in 96-well micro titer plates. The reaction mixture of 50 μl contained 20 mM HEPES pH=7.5/10 mM MgCl2/0.05 mg/ml BSA (Sigma cat. #A-7906), 50 nM cGMP (Sigma, cat. #G6129) and 50 nM [3H]-cGMP (GE Healthcare, cat. #TRK392 S.A. 13.2 Ci/mmol), 3.75 ng/well PDE10A enzyme (Enzo Life Science, Lausen, Switzerland cat #SE-534) with or without a specific test compound. A range of concentrations of the potential inhibitor was used to generate data for calculating the concentration of inhibitor resulting in 50% of the effect (e.g. IC50, the concentration of the competitor inhibiting PDE10A activity by 50%). Non-specific activity was tested without the enzyme. The reaction was initiated by the addition of the substrate solution (cGMP and [3H]-cGMP) and allowed to progress for 20 minutes at room temperature. The reaction was terminated by adding 25 μl of YSi-SPA scintillation beads (GE Healthcare, cat. #RPNQ0150) in 18 mM zinc sulphate solution (stop reagent). After 1 h under shaking, the plate was centrifuged one minute at 170 g to allow beads to settle. Afterwards, radioactive counts were measured on a Perkin Elmer TopCount Scintillation plate reader.
(In general: SPA uses beads or plates that emit light when radiolabelled molecules are held near them.)
With `c1cc(COc2cc(N3CCOCC3)nc(-c3ccn[nH]3)n2)nc(N2CCCC2)c1` [Example 23, 4-[2-(2H-Pyrazol-3-yl)-6-(6-pyrrolidin-1-yl-pyridin-2-ylmethoxy)-pyrimidin-4-yl]-morpholine], the IC50 (usually the concentration that gives 50% inhibition) worked out at 1080 nM.

With `CN(C)c1nc(CCc2cccc(N3CCC(CO)C3)n2)nc2ccc(Cl)cc12` (stereo not drawn) [Example 33, (1-(6-(2-(6-Chloro-4-(dimethylamino)quinazolin-2-yl)ethyl)pyridin-2-yl)pyrrolidin-3-yl)methanol], the IC50 is 150 nM.

Take `Cc1ncc(C)n2nc(CCc3cccc(N4CCCC4)n3)nc12` [Example 45, 5,8-Dimethyl-2-(2-(6-(pyrrolidin-1-yl)pyridin-2-yl)ethyl)-[1,2,4]triazolo-[1,5-a]pyrazine]: the IC50 was found to be 4.5 nM.

With `Cc1ncc(C)n2nc(CCc3cncc(N4CCCC4)n3)nc12` [Example 51, 5,8-Dimethyl-2-(2-(6-(pyrrolidin-1-yl)pyrazin-2-yl)ethyl)-[1,2,4]triazolo[1,5-a]pyrazine], the half-inhibitory concentration (IC50) was determined as 140 nM.

In the case of `CNc1cccc(CCc2nc(-c3ccccc3)cn2C)n1` [Example 4, Methyl-{6-[2-(1-methyl-4-phenyl-1H-imidazol-2-yl)-ethyl]-pyridin-2-yl}-amine], the IC50 was 4060 nM.

Consider `Cc1cccc2c(=O)[nH]c(CCc3cccc(N4CCCC4)n3)nc12` [Example 37, 8-methyl-2-(2-(6-(pyrrolidin-1-yl)pyridin-2-yl)ethyl)quinazolin-4(3H)-one], for which the IC50 worked out at 3270 nM.

As to `CN(C)c1nc(/C=C/c2cccc(N(C)CCO)n2)nc2ccc(Cl)cc12` [Example 39, (E)-2-((6-(2-(6-Chloro-4-(dimethylamino)quinazolin-2-yl)vinyl)pyridin-2-yl)(methyl)amino)ethanol], the IC50 came to 240 nM.

For the compound `CN(C)c1nc(/C=C/c2cccc(N3CCC(CO)C3)n2)nc2ccc(Cl)cc12` (stereo not drawn) [Example 25, (E)-(1-(6-(2-(6-Chloro-4-(dimethylamino)quinazolin-2-yl)vinyl)pyridin-2-yl)pyrrolidin-3-yl)methanol], the IC50 was determined as 220 nM.

Regarding `Cn1cc(-c2ccccc2)nc1CCc1cccc(N2CCOCC2)n1` [Example 7, 4-(6-(2-(1-Methyl-4-phenyl-1H-imidazol-2-yl)ethyl)pyridin-2-yl)morpholine], the IC50 turned out to be 3140 nM.

For the compound `CC1CCCN1c1cccc(CCc2nc(N(C)C)c3cc(Cl)ccc3n2)n1` (stereo not drawn) [Example 38, 6-Chloro-N,N-dimethyl-2-(2-(6-(2-methylpyrrolidin-1-yl)pyridin-2-yl)ethyl)quinazolin-4-amine], the IC50 amounted to 81 nM.

As to `COc1c(C)cnc(CCc2cccc(N3CCCC3)n2)c1C` [Example 5, 4-Methoxy-3,5-dimethyl-2-(2-(6-(pyrrolidin-1-yl)pyridin-2-yl)ethyl)pyridine], the IC50 was determined as 610 nM.

As for `COc1c(Cl)ccc2nc(CCc3cccc(N4CCCC4)n3)[nH]c(=O)c12` [Example 27, 6-Chloro-5-methoxy-2-(2-(6-(pyrrolidin-1-yl)pyridin-2-yl)ethyl)-quinazolin-4(3H)-one], the IC50 was determined as 470 nM.

`Cc1nc2ccccc2nc1CCc1cccc(N2CCCC2)n1` [Example 11, 2-Methyl-3-[2-(6-pyrrolidin-1-yl-pyridin-2-yl)-ethyl]-quinoxaline]: the IC50 was 120 nM.

As to `Cn1cc(-c2ccccc2)nc1CCc1cncc(N2CCCN2)n1` [Example 14, 2-(2-(1-Methyl-4-phenyl-1H-imidazol-2-yl)ethyl)-6-(pyrazolidin-1-yl)pyrazine hydrochloride], the IC50 was determined as 120 nM.

Regarding `Cc1cc(C)n2nc(CCc3cncc(N4CCCC4)n3)nc2n1` [Example 46, 5,7-Dimethyl-2-(2-(6-(pyrrolidin-1-yl)pyrazin-2-yl)ethyl)-[1,2,4]triazolo-[1,5-a]pyrimidine], the IC50 is 300 nM.

Regarding `Cc1c(C(N)=O)nc2ccc(OCc3cccc(N4CCCC4)n3)nn12` [Example 56, 3-Methyl-6-((6-(pyrrolidin-1-yl)pyridin-2-yl)methoxy)imidazo[1,2-b]pyridazine-2-carboxamide], the IC50 was 1050 nM.

In the case of `Cn1cc(-c2ccccc2)nc1CCc1cccc(N2CCCC2)n1` [Example 6, 2-(2-(1-Methyl-4-phenyl-1H-imidazol-2-yl)ethyl)-6-(pyrrolidin-1-yl)pyridine], the IC50 was 1840 nM.

In the case of `c1cc(COc2ccc3nc(C4CC4)cn3n2)nc(N2CCCC2)c1` [Example 55, 2-Cyclopropyl-6-((6-(pyrrolidin-1-yl)pyridin-2-yl)methoxy)imidazo[1,2-b]pyridazine], the IC50 was found to be 600 nM.

Take `CC1CCC(C)N1c1cccc(CCc2nc(N(C)C)c3ccccc3n2)n1` (stereo not drawn) [Example 30, 2-(2-(6-(2,5-Dimethylpyrrolidin-1-yl)pyridin-2-yl)ethyl)-N,N-dimethylquinazolin-4-amine]: the IC50 was found to be 2300 nM.

For the compound `Cc1cc(N2CCCC2)nc(/C=C/c2ccc3ccccc3n2)n1` [Example 1, (E)-2-[2-(4-Methyl-6-pyrrolidin-1-yl-pyrimidin-2-yl)-vinyl]-quinoline], the IC50 came to 530 nM.

In the case of `CN(C)c1nc(CCc2cccc(N3CCC(O)C3)n2)nc2ccccc12` (stereo not drawn) [Example 32, 1-(6-(2-(4-(Dimethylamino)quinazolin-2-yl)ethyl)pyridin-2-yl)-pyrrolidin-3-ol], the IC50 came out at 480 nM.

Consider `c1cc(CCc2nc(N3CCOCC3)c3ccccc3n2)nc(N2CCCC2)c1` [Example 21, 4-(2-(2-(6-(Pyrrolidin-1-yl)pyridin-2-yl)ethyl)quinazolin-4-yl)morpholine], for which the IC50 was found to be 46 nM.

Regarding `Cc1nc2ccccc2nc1/C=C/c1cccc(N2CCCC2)n1` [Example 10, 2-Methyl-3-[(E)-2-(6-pyrrolidin-1-yl-pyridin-2-yl)-vinyl]-quinoxaline], the IC50 is 90 nM.

With `O=c1[nH]c(CCc2cccc(N3CCCC3)n2)nc2ccc(Cl)cc12` [Example 29, 6-Chloro-2-(2-(6-(pyrrolidin-1-yl)pyridin-2-yl)ethyl)quinazolin-4(3H)-one], the IC50 turned out to be 100 nM.

As for `Cc1cc(C)n2nc(/C=C/c3cccc(N4CCCC4)n3)nc2n1` [Example 47, (E)-5,7-Dimethyl-2-(2-(6-(pyrrolidin-1-yl)pyridin-2-yl)vinyl)[1,2,4]triazolo[1,5-a]pyrimidine], the IC50 turned out to be 31 nM.

Regarding `c1cncc(-c2nc(OCc3cccc(N4CCCC4)n3)cc(N3CCOCC3)n2)c1` [Example 24, 4-(2-(Pyridin-3-yl)-6-((6-(pyrrolidin-1-yl)pyridin-2-yl)methoxy)-pyrimidin-4-yl)morpholine], the IC50 amounted to 1630 nM.

For `O=c1[nH]c(CCc2cccc(N3CCCC3)n2)nc2cccc(Cl)c12` [Example 26, 5-Chloro-2-(2-(6-(pyrrolidin-1-yl)pyridin-2-yl)ethyl)quinazolin-4(3H)-one], the IC50 stood at 400 nM.
